The values below come from US8063093B2, “Potassium channel blockers and uses thereof” (priority 2005, dated 2011).

By melting point is commonly meant the temperature of the solid-liquid transition. By EC50 is commonly meant the midpoint of the concentration-response curve. The low end stands for greater potency, the high end for weaker potency.

The target in the first data set is Kv1.3 (Homo sapiens, UniProt P22001).
Chain of Kv1.3 (P22001 whole entry): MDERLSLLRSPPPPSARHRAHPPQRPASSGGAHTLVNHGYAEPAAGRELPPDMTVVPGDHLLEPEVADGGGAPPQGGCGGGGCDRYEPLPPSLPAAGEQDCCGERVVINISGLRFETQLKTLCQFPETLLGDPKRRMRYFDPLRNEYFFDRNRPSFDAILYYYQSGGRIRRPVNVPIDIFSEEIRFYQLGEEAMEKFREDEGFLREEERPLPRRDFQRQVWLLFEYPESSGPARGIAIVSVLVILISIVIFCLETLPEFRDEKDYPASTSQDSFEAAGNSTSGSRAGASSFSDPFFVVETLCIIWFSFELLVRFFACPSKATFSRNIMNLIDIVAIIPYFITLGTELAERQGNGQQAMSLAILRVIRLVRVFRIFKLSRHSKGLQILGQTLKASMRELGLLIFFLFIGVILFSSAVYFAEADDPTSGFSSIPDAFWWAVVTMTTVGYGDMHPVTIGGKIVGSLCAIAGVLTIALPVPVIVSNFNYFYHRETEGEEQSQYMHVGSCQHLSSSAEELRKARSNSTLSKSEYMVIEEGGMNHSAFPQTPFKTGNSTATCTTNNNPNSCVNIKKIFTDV
Test: not given
The note with it: cited from earlier work.
Take `COc1c(C(C)=O)c(O)c(OC)c2occc12` [Khellinone]: the “blocking activity on the Kv1.3 channel” value is reported as “exhibit blocking activity”.

Still in this data set, the particulars now being: result in words; cited from earlier work.
With `COc1c2occc2cc2ccc(=O)oc12` [Compound 8-MOP, 8-Methoxypsoralen], the “blocking activity on the Kv1.3 channel” value is “exhibit blocking activity”.

Test system in the next data set: not given
Test: not given
Settings: not given
Regarding `COc1c(C(C)=O)c(O)c(OCc2ccc3ccccc3c2)c2occc12` [Compound 38], the melting point was in the range of 114 to 115 °C. The same measure, in the same setting: the figure for `COc1c(O)c(C(C)=O)c(OCc2ccc(OCc3ccccc3)cc2)c2ccoc12` [Compound 30] is 155 to 157 °C; for `COc1c(O)c(C(C)=O)c(OCc2ccc(C(=O)c3ccccc3)cc2)c2ccoc12` [Compound 31] it is 132 to 134 °C; for `COc1c(O)c(C(C)=O)c(OCCCCc2ccccc2)c2ccoc12` [Compound 9] it is 121 to 122 °C.

`COc1c(C(C)=O)c(O)c(OCc2cccc([N+](=O)[O-])c2)c2occc12` [Compound 52] displayed a melting point of 157 to 159 °C. Compound `COc1c(O)c(C(C)=O)c(OCc2ccccc2-c2ccccc2)c2ccoc12` [Compound 14] displayed a melting point of 126 to 127 °C.

`COc1c2occc2c(OCCCCc2ccccc2)c2c(=O)cc(C)oc12` [Compound 99] gave a melting point of 121 to 122 °C. On the same count and under the same terms, the figure for `COc1c(C(C)=O)c(O)c(OCc2cccc(COc3c(O)c(C(C)=O)c(OC)c4ccoc34)c2)c2occc12` [Compound 94] is 125 to 128 °C. In turn, `COc1c(C(C)=O)c(O)c(OCCCCc2ccccc2)c2occc12` [Compound 42] yielded a melting point of 28 °C. The same measure, in the same setting: the figure for `COc1c(C(C)=O)c(O)c(OCCCc2ccccc2)c2occc12` [Compound 41] is 36 °C. The same measure, in the same setting: the figure for `COc1c(O)c(C(C)=O)c(OCc2ccccc2)c2ccoc12` [Compound 6] is 93 to 94 °C; for `COc1c(O)c(C(C)=O)c(OCc2ccc(C(=O)O)cc2)c2ccoc12` [Compound 32] it is 183 to 186 °C; for `COc1c(O)c(C(C)=O)c(OCc2ccccc2C)c2ccoc12` [Compound 13] it is 101 to 103 °C. `COc1c(C(C)=O)c(O)c(OCc2ccc(-c3ccccc3)cc2)c2occc12` [Compound 59]: the melting point fell in the range of 126 to 127 °C. Same read-out and setting: with `COc1c(O)c(C(C)=O)c(OCc2ccc(C(F)(F)F)cc2)c2ccoc12` [Compound 24] the figure was 104 to 106 °C. On the same count and under the same terms, with `COc1c(C(C)=O)c(O)c(OCCc2ccccc2)c2occc12` [Compound 40] the figure was 102 to 104 °C.

The compound `COc1c(C(C)=O)c(O)c(OCc2ccccc2-c2ccccc2)c2occc12` [Compound 47] came in with a melting point of 115 to 117 °C. `COc1c(C(C)=O)c(O)c(OCc2ccc(C(=O)O)cc2)c2occc12` [Compound 63] returned a melting point of 208 to 209 °C.

`COc1c(O)c(C(C)=O)c(OCc2ccc(C(C)(C)C)cc2)c2ccoc12` [Compound 26] showed a melting point of 82 to 87 °C.

`COc1c(C(C)=O)c(O)c(OCCCCCCOc2c(O)c(C(C)=O)c(OC)c3ccoc23)c2occc12` [Compound 92] came in with a melting point of 109 to 111 °C. Take `COc1c(O)c(C(C)=O)c(OCc2cccc(OC(F)(F)F)c2)c2ccoc12` [Compound 19]: the melting point was 86 to 88 °C. Same read-out and setting: with `COc1c(O)c(C(C)=O)c(OCCCCCCCOc2c(C(C)=O)c(O)c(OC)c3occc23)c2ccoc12` [Compound 87] the figure was 122 to 125 °C. `COc1c(C(C)=O)c(O)c(OCc2cccc(C)c2)c2occc12` [Compound 50]: the melting point lay in the range of 81 to 82 °C. As for `COc1c(O)c(C(C)=O)c(OCc2cccc(COc3c(C(C)=O)c(O)c(OC)c4occc34)c2)c2ccoc12` [Compound 88], the melting point was 184 to 186 °C. Same read-out and setting: with `COc1c(C(C)=O)c(O)c(OCc2ccc(C(C)(C)C)cc2)c2occc12` [Compound 58] the figure was 117 to 118 °C.

For the compound `COc1c(O)c(C(C)=O)c(OCc2cccc3ccccc23)c2ccoc12` [Compound 4], the melting point was 96 to 98 °C. The same measure, in the same setting: the figure for `COc1c(O)c(C(C)=O)c(OCCCCOc2c(C(C)=O)c(O)c(OC)c3occc23)c2ccoc12` [Compound 84] is 209 to 211 °C; for `COc1c(C(C)=O)c(O)c(OCc2ccc(C(C)C)cc2)c2occc12` [Compound 57] it is 80 to 83 °C; for `COc1c(C(C)=O)c(O)c(OCc2ccc(Br)cc2)c2occc12` [Compound 55] it is 106 to 107 °C.

`COc1c(O)c(C(C)=O)c(OCCCc2ccccc2)c2ccoc12` [Compound 8] had a melting point of 94 to 95 °C. As to `COc1c(O)c(C(C)=O)c(OCCCCCOc2c(C(C)=O)c(O)c(OC)c3occc23)c2ccoc12` [Compound 85], the melting point lay within 139 to 141 °C.

Consider `COc1c(O)c(C(C)=O)c(OCc2ccc(OC(F)(F)F)cc2)c2ccoc12` [Compound 29], for which the melting point is 130 to 131 °C. Compound `COc1c(C(C)=O)c(O)c(OCc2ccccc2Cl)c2occc12` [Compound 45] yielded a melting point of 104 to 107 °C.

Compound `COc1c(O)c(C(C)=O)c(OCc2ccc(COc3c(C(C)=O)c(O)c(OC)c4occc34)cc2)c2ccoc12` [Compound 89] yielded a melting point of 201 to 203 °C. On the same count and under the same terms, the figure for `COc1c(O)c(C(C)=O)c(OCc2ccc(C(C)C)cc2)c2ccoc12` [Compound 25] is 73 to 75 °C; for `COc1c(O)c(C(C)=O)c(OCc2cccc([N+](=O)[O-])c2)c2ccoc12` [Compound 20] it is 160 to 162 °C; for `COc1c(O)c(C(C)=O)c(OCCCCCCOc2c(C(C)=O)c(O)c(OC)c3occc23)c2ccoc12` [Compound 86] it is 147 to 151 °C. For `COc1c(C(C)=O)c(O)c(OCc2ccc(F)cc2)c2occc12` [Compound 53], the melting point lay in the range of 99 to 100 °C. The compound `COc1c(C(C)=O)c(O)c(OCc2ccc(OCc3ccccc3)cc2)c2occc12` [Compound 61] returned a melting point of 118 to 120 °C. On the same count and under the same terms, the figure for `COc1c(C(C)=O)c(O)c(OCc2ccccc2C)c2occc12` [Compound 46] is 86 to 88 °C; for `COc1c(C(C)=O)c(O)c(OCc2ccc(Cl)cc2)c2occc12` [Compound 54] it is 110 °C; for `COc1c(C(C)=O)c(O)c(OCc2ccccc2)c2occc12` [Compound 39] it is 79 to 80 °C.

Compound `COc1c(C(C)=O)c(O)c(OCc2ccccc2F)c2occc12` [Compound 44] yielded a melting point of 89 to 92 °C. On the same count and under the same terms, the figure for `COc1c(O)c(C(C)=O)c(OCc2ccc(-c3ccccc3)cc2)c2ccoc12` [Compound 27] is 163 to 167 °C.

`COc1c(C(C)=O)c(O)c(OCc2cccc(F)c2)c2occc12` [Compound 48] had a melting point of 89 to 91 °C. Still for that read-out and setting: the figure for `COc1c(C(C)=O)c(O)c(OCc2ccc(COc3c(O)c(C(C)=O)c(OC)c4ccoc34)cc2)c2occc12` [Compound 95] is 184 to 186 °C; for `COc1c(O)c(C(C)=O)c(OCc2cccc(C)c2)c2ccoc12` [Compound 17] it is 99 to 101 °C.

In turn, `COc1c(O)c(C(C)=O)c(OCc2ccccc2Cl)c2ccoc12` [Compound 12] came in with a melting point of 84 to 86 °C. Still for that read-out and setting: the figure for `COc1c(C(C)=O)c(O)c(OCCCCCOc2c(O)c(C(C)=O)c(OC)c3ccoc23)c2occc12` [Compound 91] is 132 to 134 °C; for `COc1c(C(C)=O)c(O)c(OCc2cccc(Cl)c2)c2occc12` [Compound 49] it is 105 to 108 °C; for `COc1c(C(C)=O)c(O)c(OCc2ccc(C(F)(F)F)cc2)c2occc12` [Compound 56] it is 90 to 91 °C. The same measure, in the same setting: with `COc1c(O)c(C(C)=O)c(OCc2ccc(F)cc2)c2ccoc12` [Compound 21] the figure was 100 to 102 °C; with `COc1c(C(C)=O)c(O)c(OCCCCCc2ccccc2)c2occc12` [Compound 43], 31 to 32 °C; with `COc1c(O)c(C(C)=O)c(OCc2cccc(F)c2)c2ccoc12` [Compound 15], 118 to 121 °C. With `COc1c(O)c(C(C)=O)c(OCc2cccc(Cl)c2)c2ccoc12` [Compound 16], the melting point was in the range of 108 to 111 °C. Same read-out and setting: the figure for `COc1c(O)c(C(C)=O)c(OCc2ccccc2F)c2ccoc12` [Compound 11] is 105 to 108 °C; for `CC(=O)c1c(O)c(OCc2ccccc2)c2occc2c1OCc1ccccc1` [Compound 82] it is 74 to 76 °C; for `COc1c(O)c(C(C)=O)c(OCc2ccc(Cl)cc2)c2ccoc12` [Compound 22] it is 106 to 108 °C.

Another data set concerns peripheral blood mononuclear cells. In words: [3H]-thymidine incorporation (proliferation), anti-CD3 stimulated. The format is cell-based. The note with it: Homo sapiens, PBMC; Table 9; 5 ng/ml anti-CD3 Ab for 48 h. The source says: [^3H]-thymidine incorporation is a widely used test to assay the proliferative activity of human and rodent lymphocytes. As cells divide [^3H]-thymidine will be incorporated into the newly synthesised DNA of the resulting daughter cells. The faster cells grow the more radioactive [^3H]-thymidine will be incorporated. Any compound that inhibits lymphocytes proliferation will reduce the uptake of radioactivity by the cells treated with it compared to the untreated controls.
The selected compounds were tested to determine its ability to inhibit [^3H]-thymidine incorporation and the results are set out in table 6 below. Resting peripheral blood mononuclear cells from healthy volunteers were seeded at 2×10^5 cells per well in medium (RPMI 1640 supplemented 10% fetal calf serum, 2 mM glutamine, 1 mM sodium pyruvate, 1% nonessential amino acids, 100 units/ml penicillin, 100 μg/ml streptomycin and 50 μM β-mercaptoethanol) in flat-bottom 96 well plates (final volume 200 μl). Cells were pre-incubated with the compound of example 2 for 60 min, and were stimulated with 5 ng/ml anti-CD3 Ab for 48 h. [^3H]-Thymidine (1 μCi per well) was added for the last 6 h. Cells were harvested onto glass fibre filters and radioactivity measured in a scintillation counter. All experiments were done in triplicate. Results are normalised for maximum [^3H]-thymidine incorporation by control.
`COc1c(C(C)=O)c(O)c(OCCCc2ccccc2)c2occc12` [Compound 41] showed an EC50 of 1000 nM. The compound `COc1c(C(C)=O)c(O)c(OCc2ccc(Br)cc2)c2occc12` [Compound 55] yielded an EC50 of 2500 nM. `COc1c(O)c(C(C)=O)c(OCc2ccc(Cl)cc2)c2ccoc12` [Compound 22] registered an EC50 of 2500 nM.
